Several values for one entry are separate records, joined by “and”; a condition that tells them apart may be missing. Equal entries are not always repeated.
What was measured:
[1] = test system: TMD8 cells; experiment: CellTrace Violet dilution/cell division assay; type: cell-based, human; conditions: TMD8, 1 μM
Description: (§1) Cell proliferation, viability, and apoptosis assays. […]
(§2) CellTrace Violet reagent (ThermoFisher, Cat#
(§3) C34571) was used as a cell division tracking dye for OCI-Ly1, OCI-Ly3, and TMD8 cells treated with 1 μM of compound M1i-124 or DMSO control, where the intensity of the staining decreases with each round of cell division. At days 0 and 6 after staining of DMSO- and compound-treated cells, CellTrace Violet fluorescence was measured on a BD LSR II instrument and Mean Fluorescent Intensity (MFI) was analyzed by FlowJo (version 10.8.0, BD). […]
(§4) For CellTrace Violet, CellTiter-glo, and Annexin V apoptosis assays, cell were cultured in media with 50% of the usual serum. […]

[2] = test system: OCI-Ly3 cells; experiment: CellTrace Violet dilution/cell division assay; type: cell-based, human; conditions: OCI-Ly3, 1 μM
Description: as §1, §2, §3, §4

[3] = test system: OCI-Ly1 cells; experiment: CellTrace Violet dilution/cell division assay; type: cell-based, human; conditions: OCI-Ly1, 1 μM
Description: as §1, §2, §3, §4

[4] = test system: TMD8 tumor xenografts; experiment: TMD8 xenograft in NOD-SCID mice; type: in vivo, mouse
Source text: TMD8 cells were engrafted into 8-week-old female NOD.CB17-Prkdc^scid/J (NOD-SCID) mice from The Jackson Laboratory by subcutaneous injection of 10 × 10^6 cells resuspended in 50% Cultrex Basement Membrane Extract (R&D Systems, catalog 3632-010-02) into the right flank. OCI-Ly3 cells were engrafted into 5-week-old female NOD.Cg-Prkdc^scid Il2rg^tm1Wjl/SzJ (NSG) mice from The Jackson Laboratory by subcutaneous injection of 2.5 × 10^6 cells resuspended in Cultrex as above. OCI-Ly1 cells were engrafted into 6.5-week-old female NSG mice from The Jackson Laboratory by subcutaneous injection of 20 × 10^6 cells resuspended in Cultrex as above. For all xenograft models, when tumors reached an average volume of 100 mm^3, mice were randomized to receive M1i-124 (50 mg/kg i.p. per day), or equivalent volume of DMSO vehicle (50 μL i.p. per day). […] Tumor size was measured 3 times a week using a caliper and calculated using the formula (smallest diameter^2 × largest diameter)/2. Mice were sacrificed 24 hours after the last injection. Mice were sacrificed when the largest tumors reached 2,500 mm^3. For TMD8 xenograft experiments, tumors and various organs, including lung, heart, liver, and kidney, were collected and fixed in 10% buffered formalin, embedded in FFPE blocks, sectioned, and stained with H&E. Sections were evaluated by a board-certified pathologist.

[5] = In vivo pharmacokinetics, plasma LC-MS/MS
Description: Pharmacokinetic and cytochrome P450 inhibition studies. Studies were performed with the assistance of Touchstone Biosciences (Plymouth Meeting, Pennsylvania). For pharmacokinetic bioanalysis, male CD-1 mice were fasted overnight before being dosed with M1i-124 via oral gavage (20mg/kg), intraperitoneal injection in the lower right quadrant of the abdomen (20 mg/kg), or intravenous tail vein injection (5 mg/kg). All blood samples were taken via tail vein at 5, 15, and 30 minutes, and 1, 2, 4, 6, 8, and 24 hours after compound administration. The plasma concentration of the compound was determined using LC-MS/MS analysis. […]

Q: Which activity at 1 µM ([1]; Homo sapiens, TMD8, 144 h, day 6, read-out: CellTrace Violet dilution (Percent of Control)) does the source give for `O=S(=O)(NCc1ccc2c(c1)OCO2)c1ccc(Cc2ccc(S(=O)(=O)NCc3ccc4c(c3)OCO4)cc2)cc1` [M1i-124] here?
A: 42.2%

Q: What about the cell division ([1]; 6 days, result in words) of the same compound?
A: substantially reduced

Q: What about the “CellTrace Violet dilution (Percent of Control)” value ([1]; day 6, 1 µM) of the same compound?
A: 48.11% of Control and 53.597% of Control and 42.644% of Control

Q: And the cell division ([2]; 6 days, result in words)?
A: substantially reduced

Q: And the “CellTrace Violet dilution (Percent of Control)” value ([2]; day 6, 1 µM)?
A: 39.99% of Control and 46.66% of Control and 31.33% of Control and 60.69% of Control

Q: And the activity at 1 µM ([3]; Homo sapiens, OCI-Ly1, 144 h, day 6, read-out: CellTrace Violet dilution (Percent of Control))?
A: 73.1%

Q: What about the cell division ([3]; 6 days, result in words) of the same compound?
A: minimal effect

Q: And the “CellTrace Violet dilution (Percent of Control)” value ([3]; day 6, 1 µM)?
A: 82.43% of Control and 74.14% of Control and 90.83% of Control

Q: What about the “growth of TMD8 tumor xenografts (tumor volume, terminal tumor weight)” value ([4]; 50 mg/kg i.p. per day, 12 days, vs DMSO, result in words) of the same compound?
A: significantly suppressed

Q: What about the “body weight of xenograft mice” value ([4]; at conclusion of experiment, result in words) of the same compound?
A: slightly lower body weights

Q: And the “microscopic evaluation of major organs” value ([4]; heart, lung, liver, adrenal, kidney, result in words)?
A: no signs of histologic abnormality

Q: What about the Terminal body weights ([4]; individual mice) of the same compound?
A: 17.69 g and 19.26 g and 19.45 g and 20.17 g and 20.3 g and 20.4 g and 20.6 g and 20.42 g

Q: And the “clinical signs during treatment” value ([4]; result in words)?
A: No abnormal clinical signs or indicators of adverse reaction were observed

Q: What about the “Plasma concentration (IP)” value ([5]; IP, 0.083 hours) of the same compound?
A: 658 ng/mL and 561 ng/mL

Q: And the “Plasma concentration (IP)” value ([5]; IP, 0.25 hours)?
A: 720 ng/mL and 607 ng/mL

Q: What about the “Plasma concentration (IP)” value ([5]; IP, 0.5 hours) of the same compound?
A: 775 ng/mL and 671 ng/mL

Q: And the “Plasma concentration (IP)” value ([5]; IP, 1 hours)?
A: 437 ng/mL and 307 ng/mL

Q: And the “Plasma concentration (IP)” value ([5]; IP, 2 hours)?
A: 242 ng/mL and 173 ng/mL

Q: What about the “Plasma concentration (IP)” value ([5]; IP, 4 hours) of the same compound?
A: 110 ng/mL and 86.5 ng/mL

Q: What about the “Plasma concentration (IP)” value ([5]; IP, 6 hours) of the same compound?
A: 59.4 ng/mL

Q: And the “Plasma concentration (IP)” value ([5]; IP, 8 hours)?
A: 38.1 ng/mL and 35.4 ng/mL

Q: What about the “Plasma concentration (IP)” value ([5]; IP, 24 hours) of the same compound?
A: 7.87 ng/mL

Q: And the “Plasma concentration (IV)” value ([5]; 0.083 hours)?
A: 2080 ng/mL and 1440 ng/mL

Q: What about the “Plasma concentration (IV)” value ([5]; 0.25 hours) of the same compound?
A: 1320 ng/mL and 1020 ng/mL

Q: What about the “Plasma concentration (IV)” value ([5]; 0.5 hours) of the same compound?
A: 302 ng/mL

Q: And the “Plasma concentration (IV)” value ([5]; 1 hours)?
A: 115 ng/mL and 152 ng/mL

Q: What about the “Plasma concentration (IV)” value ([5]; 2 hours) of the same compound?
A: 30.6 ng/mL and 29 ng/mL

Q: And the “Plasma concentration (IV)” value ([5]; 4 hours)?
A: 16.3 ng/mL

Q: What about the “Plasma concentration (IV)” value ([5]; 6 hours) of the same compound?
A: 12.7 ng/mL and 16.3 ng/mL

Q: And the “Plasma concentration (IV)” value ([5]; 8 hours)?
A: 12.6 ng/mL

Q: And the “Plasma concentration (IV)” value ([5]; 24 hours)?
A: 2.97 ng/mL and 3.88 ng/mL

Q: What about the “Plasma concentration (PO)” value ([5]; 0.083 hours) of the same compound?
A: 306 ng/mL and 267 ng/mL

Q: And the “Plasma concentration (PO)” value ([5]; 0.25 hours)?
A: 56.5 ng/mL and 86.1 ng/mL

Q: What about the “Plasma concentration (PO)” value ([5]; 0.5 hours) of the same compound?
A: 57.2 ng/mL

Q: What about the “Plasma concentration (PO)” value ([5]; 1 hours) of the same compound?
A: 25.9 ng/mL and 21.8 ng/mL

Q: And the “Plasma concentration (PO)” value ([5]; 2 hours)?
A: 14.7 ng/mL and 15.7 ng/mL

Q: What about the “Plasma concentration (PO)” value ([5]; 4 hours) of the same compound?
A: 13.1 ng/mL

Q: What about the “Plasma concentration (PO)” value ([5]; 6 hours) of the same compound?
A: 9.73 ng/mL and 11.5 ng/mL

Q: And the “Plasma concentration (PO)” value ([5]; 8 hours)?
A: 8.44 ng/mL and 9.62 ng/mL

Q: What about the “Plasma concentration (PO)” value ([5]; 24 hours) of the same compound?
A: 2.39 ng/mL and 2.74 ng/mL

Q: What about the concentration at 6 h ([5]; male, CD-1, mouse, in vivo, ip, 20 mg/kg, IP, 6 hours, read-out: Plasma concentration (IP)) of the same compound?
A: 54.8 ng/mL

Source: article PMC11996864, “A small-molecule inhibitor of BCL10-MALT1 interaction abrogates progression of diffuse large B cell lymphoma” (The Journal of Clinical Investigation, 2025)
